Results published in patent publication US8268814B2, “Substituted sulfonamide compounds” (Gruenenthal GmbH, priority 2008, dated 2012).

How the values were obtained:
[1] = target: T1, B1R receptor of the rat (rB1R) (Rattus norvegicus, UniProt P97583); assay: Functional FLIPR Ca2+ assay on the bradykinin 1 receptor, rat (rB1R CHO K1 cells); assay type: cell-based; details: test substance 10 μM; CHO K1 cells transfected with rat B1R gene; agonist Des-Arg9-bradykinin at EC80; % inhibition compared with maximum achievable inhibition; read-out: B1R antagonism, rat [10 μM] % inhibition
T1 construct: expressed in transfected cells; host or cells: CHO K1 cells (Chinese hamster ovary), stably transfected
T1 sequence (P97583 1-337): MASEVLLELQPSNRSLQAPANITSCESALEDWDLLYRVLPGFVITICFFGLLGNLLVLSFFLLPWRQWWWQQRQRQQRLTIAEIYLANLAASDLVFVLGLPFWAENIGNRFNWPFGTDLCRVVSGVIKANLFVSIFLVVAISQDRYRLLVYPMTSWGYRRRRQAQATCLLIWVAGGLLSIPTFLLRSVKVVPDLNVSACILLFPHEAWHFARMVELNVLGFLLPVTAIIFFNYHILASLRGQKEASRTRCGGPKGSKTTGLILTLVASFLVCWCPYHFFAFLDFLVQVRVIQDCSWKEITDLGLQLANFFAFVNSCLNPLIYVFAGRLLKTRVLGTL
Summary of the method: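 Stably transfected CHO K1 cells expressing human or rat B1R, Fluo-4-loaded, Ca2+ influx read by FLIPR (peak fluorescence). Compounds (10 μM for % activation) preincubated 10-20 min, then EC80 agonist added: Lys-Des-Arg9-bradykinin for human, Des-Arg9-bradykinin for rat; % inhibition versus maximal inhibition, IC50 from concentration series.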

[2] = target: T2, human B1R receptor (hB1R) (Homo sapiens, UniProt P46663); assay: Functional FLIPR Ca2+ assay on the bradykinin 1 receptor, human (hB1R CHO K1 cells); assay type: cell-based; details: test substance 10 μM; CHO K1 cells transfected with human B1R gene; agonist Lys-Des-Arg9-bradykinin at EC80; % inhibition compared with maximum achievable inhibition; read-out: B1R antagonism, human (10 μM] % inhibition
T2 construct: expressed in transfected cells; host or cells: CHO K1 cells (Chinese hamster ovary), stably transfected
T2 sequence (P46663 1-353): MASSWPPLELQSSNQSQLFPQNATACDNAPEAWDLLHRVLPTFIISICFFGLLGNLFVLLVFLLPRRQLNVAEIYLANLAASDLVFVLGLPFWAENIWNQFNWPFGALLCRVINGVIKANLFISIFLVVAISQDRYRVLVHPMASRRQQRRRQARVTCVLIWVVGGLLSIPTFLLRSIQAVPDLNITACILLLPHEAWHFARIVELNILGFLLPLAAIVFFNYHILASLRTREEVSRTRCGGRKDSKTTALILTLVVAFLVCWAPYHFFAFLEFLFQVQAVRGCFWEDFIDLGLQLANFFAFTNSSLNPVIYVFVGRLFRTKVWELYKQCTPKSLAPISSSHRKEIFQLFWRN
Experimental: The agonistic or antagonistic action of substances can be quantified on the bradykinin 1 receptor (B1R) of the human and rat species with ectopically expressing cell lines (CHO K1 cells) and with the aid of a Ca^2+-sensitive dyestuff (Fluo-4) in a fluorescent imaging plate reader (FLIPR). The figure in % activation is based on the Ca^2+ signal after addition of Lys-Des-Arg^9-bradykinin (0.5 nM) or Des-Arg^9-bradykinin (100 nM). Antagonists lead to a suppression of the Ca^2+ inflow after addition of the agonist. % inhibition compared with the maximum achievable inhibition is stated.
The agonistic or antagonistic action of substances can be determined on the bradykinin 1 receptor (B1R) of the human and rat species with the following assay. In accordance with this assay, the Ca^2+ inflow through the channel is quantified with the aid of a Ca^2+-sensitive dyestuff (type Fluo-4, Molecular Probes Europe BV, Leiden, Holland) in a fluorescent imaging plate reader (FLIPR, Molecular Devices, Sunnyvale, USA).
Chinese hamster ovary cells (CHO K1 cells) transfected stably with the human B1R gene (hB1R cells) or the B1R gene of the rat (rB1R cells) are used. For functional studies, these cells are plated out on black 96-well plates with a clear base (BD Biosciences, Heidelberg, Germany or Greiner, Frickenhausen, Germany) in a density of 20,000-35,000 cells/well. The cells are left overnight at 37° C. and 5% CO2 in culture medium (hB1R cells: Nutrient Mixture Ham's F12, Gibco Invitrogen GmbH, Karlsruhe, Germany or DMEM, Sigma-Aldrich, Taufkirchen, Germany; rB1R cells: D-MEM/F12, Gibco Invitrogen GmbH, Karlsruhe, Germany) with 10 vol. % FBS (foetal bovine serum, Gibco Invitrogen GmbH, Karlsruhe, Germany or PAN Biotech GmbH, Aidenbach, Germany). On the following day, the cells are loaded for 60 min at 37° C. with 2.13 μM Fluo-4 (Molecular Probes Europe BV, Leiden, Holland) in HBSS buffer (Hank's buffered saline solution, Gibco Invitrogen GmbH, Karlsruhe, Germany) with 2.5 mM probenecid (Sigma-Aldrich, Taufkirchen, Germany) and 10 mM HEPES (Sigma-Aldrich, Taufkirchen, Germany). The plates are then washed 2× with HBSS buffer, and HBSS buffer which additionally contains 0.1% BSA (bovine serum albumin; Sigma-Aldrich, Taufkirchen, Germany), 5.6 mM glucose and 0.05% gelatine (Merck KgaA, Darmstadt, Germany) is added. After a further incubation of 20 minutes at room temperature, the plates are inserted into the FLIPR for the Ca^2+ measurement.
Alternatively, the plates are washed with buffer A (15 mM HEPES, 80 mM NaCl, 5 mM KCl, 1.2 mM CaCl2, 0.7 mM MgSO4, 2 g/l glucose, 2.5 mM probenecid), buffer A is added and the plates are loaded with 2.5 μM Fluo-4 and 0.025% Pluronic F127 (Sigma-Aldrich, Taufkirchen, Germany). Thereafter, the cells are washed 2× with buffer A and incubated for 30 minutes with buffer A, which additionally contains 0.05% BSA and 0.05% gelatine, at room temperature and thereafter inserted into the FLIPR for the Ca^2+ measurement. The Ca^2+-dependent fluorescence is measured here before and after addition of substances (λex=488 nm, λem=540 nm). Quantification is by measurement of the highest fluorescence intensity (FC, fluorescence counts) over time.
The FLIPR protocol consists of 2 additions of substance. Test substances (10 μM) are first pipetted on to the cells and the Ca^2+ inflow is compared with the control (hB1R: Lys-Des-Arg^9-bradykinin >=50 nM; rB1R: Des-Arg^9-bradykinin 10 μM). This gives the figure in % activation based on the Ca^2+ signal after addition of Lys-Des-Arg^9-bradykinin (>=50 nM) or Des-Arg^9-bradykinin (10 μM). After incubation for 10-20 minutes, Lys-Des-Arg^9-bradykinin (hB1R) or Des-Arg^9-bradykinin (rB1R) in the concentration of the EC80 is applied and the inflow of Ca^2+ is likewise determined. Antagonists lead to a suppression of the Ca^2+ inflow. % inhibition compared with the maximum achievable inhibition is calculated. In order to determine the IC50 value, the substances are added in various concentrations. […]

SMILES | inhibition at 10 µM [1] [%] | inhibition at 10 µM [2] [%]
O=C(C[C@@H](NS(=O)(=O)c1ccc2ccccc2c1)c1ccccc1)N1CCc2onc(CN3CCCCC3)c2C1 [Example 17, I—N-(3-oxo-1-phenyl-3-(3-(piperidin-1-ylmethyl)-6,7-dihydroisoxazolo[4,5-c]pyridin-5(4H)-yl)propyl)naphthalene-2-sulfonamide] | 55 | 49
O=C(CC1CCCCN1S(=O)(=O)c1cccc(C(F)(F)F)c1)N1CCc2sccc2C1c1ccc(F)cc1 (stereo not shown) [Example 19, 1-(4-(4-fluorophenyl)-6,7-dihydrothieno[3,2-c]pyridin-5(4H)-yl)-2-(1-(3-(trifluoromethyl)phenylsulfonyl)piperidin-2-yl)ethanone] | 83 | 35
Cc1ccc(C2c3ccsc3CCN2C(=O)C[C@@H](NS(=O)(=O)c2ccc3ccccc3c2)c2ccccc2)cc1 (stereo partly drawn) [Example 20, N-((1R)-3-oxo-1-phenyl-3-(4-p-tolyl-6,7-dihydrothieno[3,2-c]pyridin-5(4H)-yl)propyl)naphthalene-2-sulfonamide] | 96 | 11
O=C(C[C@@H](NS(=O)(=O)c1ccc2ccccc2c1)c1ccccc1)N1CCc2sccc2C1c1ccc(F)cc1 (stereo partly drawn) [Example 21, N-((1R)-3-(4-(4-fluorophenyl)-6,7-dihydrothieno[3,2-c]pyridin-5(4H)-yl)-3-oxo-1-phenylpropyl)naphthalene-2-sulfonamide] | 70 | 34
COc1cc(C)c(S(=O)(=O)N2CCCCC2COCC(=O)N2CCc3sccc3C2c2ccc(F)cc2)c(C)c1 (stereo not shown) [Example 22, 1-(4-(4-fluorophenyl)-6,7-dihydrothieno[3,2-c]pyridin-5(4H)-yl)-2-((1-(4-methoxy-2,6-dimethylphenylsulfonyl)piperidin-2-yl)methoxy)ethanone] | 100 | 96
CCC1c2ccsc2CCN1C(=O)CCCC1CCCCN1S(=O)(=O)c1c(C)cc(OC)cc1C (stereo not shown) [Example 23, 1-(4-Ethyl-6,7-dihydrothieno[3,2-c]pyridin-5(4H)-yl)-4-(1-(4-methoxy-2,6-dimethylphenylsulfonyl)piperidin-2-yl)butan-1-one] | 105 | 91
COc1cc(C)c(S(=O)(=O)N2CCCCC2COCC(=O)N2CCc3onc(-c4ccc(Cl)cc4)c3C2)c(C)c1 (stereo not shown) [Example 24, 1-(3-(4-chlorophenyl)-6,7-dihydroisoxazolo[4,5-c]pyridin-5(4H)-yl)-2-((1-(4-methoxy-2,6-dimethylphenylsulfonyl)piperidin-2-yl)methoxy)ethanone] | 100 | 73
O=C(C[C@@H](NS(=O)(=O)c1ccc2ccccc2c1)c1ccccc1)N1CCc2sc(CN3CCCCC3)cc2C1 [Example 26, (R)—N-(3-Oxo-1-phenyl-3-(2-(piperidin-1-ylmethyl)-6,7-dihydrothieno[3,2-c]pyridin-5(4H)-yl)propyl)naphthalene-2-sulfonamide] | 101 | 97
COc1cc(C)c(S(=O)(=O)N2CCCCC2COCC(=O)N2CCc3sc(CN4CCCCC4)cc3C2)c(C)c1 (stereo not shown) [Example 27, 2-((1-(4-Methoxy-2,6-dimethylphenylsulfonyl)piperidin-2-yl)methoxy)-1-(2-(piperidin-1-ylmethyl)-6,7-dihydrothieno[3,2-c]pyridin-5(4H)-yl)ethanone] | 106 | 100

Now from value to compound:

inhibition at 10 µM [1] [%] | inhibition at 10 µM [2] [%] | SMILES
109 | 99 | CCC1c2ccsc2CCN1C(=O)COCCN(C)S(=O)(=O)c1c(C)cc(OC)cc1C (stereo not shown) [Example 18, N-(2-(2-(4-Ethyl-6,7-dihydrothieno[3,2-c]pyridin-5(4H)-yl)-2-oxoethoxy)ethyl)-4-methoxy-N,2,6-trimethyl benzenesulfonamide]
103 | 86 | COc1cc(C)c(S(=O)(=O)N2CCCCC2COCC(=O)N2CCc3onc(-c4ccc(F)cc4)c3C2)c(C)c1 (stereo not shown) [Example 25, 1-(3-(4-fluorophenyl)-6,7-dihydroisoxazolo[4,5-c]pyridin-5(4H)-yl)-2-((1-(4-methoxy-2,6-dimethylphenylsulfonyl)piperidin-2-yl)methoxy)ethanone]
109 | 100 | COc1cc(C)c(S(=O)(=O)N(C)CCOCC(=O)N2CCc3sc(CN4CCCCC4)cc3C2)c(C)c1 [Example 28, 4-Methoxy-N,2,6-trimethyl-N-(2-(2-oxo-2-(2-(piperidin-1-yl-methyl)-6,7-dihydrothieno[3,2-c]pyridin-5(4H)-yl)ethoxy)ethyl)benzene-sulfonamide]
101 | 99 | COc1cc(C)c(S(=O)(=O)N2CCCCC2COCC(=O)N2CCc3onc(CN4CCOCC4)c3C2)c(C)c1 (stereo not shown) [Example 29, 2-((1-(4-methoxy-2,6-dimethylphenylsulfonyl)piperidin-2-yl)methoxy)-1-(3-(morpholinomethyl)-6,7-dihydroisoxazolo[4,5-c]pyridin-5(4H)-yl)ethanone]
104 | 99 | COc1cc(C)c(S(=O)(=O)N(C)CCOCC(=O)N2CCc3onc(CN4CCOCC4)c3C2)c(C)c1 [Example 30, 4-methoxy-N,2,6-trimethyl-N-(2-(2-(3-(morpholinomethyl)-6,7-dihydroisoxazolo[4,5-c]pyridin-5(4H)-yl)-2-oxoethoxy)ethyl)benzenesulfonamide]
